Assay results reported in paper PMC5681660, “Reduced hepatitis B and D viral entry using clinically applied drugs as novel inhibitors of the bile acid transporter NTCP” (Scientific Reports, 2017).
Counter-ions that a name gives are not always drawn. Like-named read-outs stand apart in the source and are kept apart here.

Columns and labels:
human NTCP [1] = target: T1, human NTCP (Homo sapiens, UniProt Q14973); assay: Screening taurocholate uptake assay (96-well, [14C]taurocholate, 10 µM drug)
T1 sequence (Q14973 1-349): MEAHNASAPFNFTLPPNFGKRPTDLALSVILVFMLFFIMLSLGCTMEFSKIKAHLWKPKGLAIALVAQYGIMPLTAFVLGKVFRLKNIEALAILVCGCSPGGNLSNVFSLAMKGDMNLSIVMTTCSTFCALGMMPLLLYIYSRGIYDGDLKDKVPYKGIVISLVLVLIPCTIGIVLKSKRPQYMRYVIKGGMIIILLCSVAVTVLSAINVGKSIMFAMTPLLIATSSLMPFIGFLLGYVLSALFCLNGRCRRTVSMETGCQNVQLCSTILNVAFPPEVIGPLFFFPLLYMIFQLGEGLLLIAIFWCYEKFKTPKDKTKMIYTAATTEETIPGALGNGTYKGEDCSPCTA

human NTCP [2] = target: T1, human NTCP; assay: Screening fluorescent competitive Myrcludex B-FITC binding assay (96-well, 10 µM drug)
[3] = Prestwick library screen, taurocholate uptake, 10 µM drug
[4] = ranking score beside the functional and binding assay B-scores of the screen
[5] = Prestwick library screen, Myrcludex B-FITC binding, 10 µM drug
[6] = combined ranking from functional and binding screening assays
[7] = screen, 10 µM drug, taurocholate uptake
[8] = screen, 10 µM drug, Myrcludex B-FITC binding
[9] = Prestwick library screen, 10 µM drug, B-score of taurocholate uptake
[10] = combined ranking from functional and binding assay B-scores
[11] = Prestwick library screen, 10 µM drug, B-score of Myrcludex B-FITC binding

SMILES	B-score functional assay (human NTCP [1]; [3])	Ranking score (human NTCP [1]; [4])	B-score binding assay (human NTCP [2]; [5])	B-score functional assay (human NTCP [1]; [9])	Ranking score (human NTCP [1]; [10])	B-score binding assay (human NTCP [2]; [11])	other results
Oc1ncnc2[nH]ncc12 [Allopurinol]	0.076	820.729	0.547				
C[C@H](N)[C@H](O)c1ccc(O)c(O)c1 [Levonordefrin]							Ranking score (human NTCP [1]; [6]): 346.693; B-score functional assay (human NTCP [1]; [7]): 0.177; B-score binding assay (human NTCP [2]; [8]): -1.559
COc1ccc2[nH]c([S+]([O-])Cc3ncc(C)c(OC)c3C)nc2c1 (stereo not drawn) [Omeprazole]							Ranking score (human NTCP [1]; [6]): 423.789; B-score functional assay (human NTCP [1]; [7]): -0.074; B-score binding assay (human NTCP [2]; [8]): -0.678
Nc1nc2c(ncn2COCCO)c(=O)[nH]1 [Acyclovir]	0.026	658.696	0				
CCOC(=O)[C@H](CCc1ccccc1)N[C@@H](C)C(=O)N1[C@H](C(=O)O)C[C@@H]2CCC[C@@H]21 [Ramipril]				0.852	1101.41	1.901	
CC(=O)O[C@]1(C(C)=O)CC[C@H]2[C@@H]3C=C(Cl)C4=CC(=O)[C@@H]5C[C@@H]5[C@]4(C)[C@H]3CC[C@@]21C [Cyproterone acetate]	-0.245	678.19	0.796				
C[C@H](N[C@@H](CCc1ccccc1)C(=O)O)C(=O)N1CCC[C@H]1C(=O)O.O.O [Enalaprilat dihydrate]	0.051	844.248	0.874				
Cn1cc[nH]c1=S [Methimazole]				0.936	1068.39	1.226	
CC12CC3CC(C)(C1)CC(N)(C3)C2 [Memantine Hydrochloride]	1.46	837.42	-0.02				
c1ccc(CN(CC2=NCCN2)c2ccccc2)cc1 [Antazoline hydrochloride]				1.194	927.719	0.166	
CN1[C@@H]2CC[C@H]1C[C@@H](OC1c3ccccc3CCc3ccccc31)C2.O=C(O)CC(O)(CC(=O)O)C(=O)O [Deptropine citrate]				0.947	1000.12	0.633	
COc1c2occc2c(OC)c2c(=O)cc(C)oc12 [Khellin]							Ranking score (human NTCP [1]; [6]): 450.763; B-score functional assay (human NTCP [1]; [7]): 0.111; B-score binding assay (human NTCP [2]; [8]): -0.883
O=c1oc2ccccc2c(O)c1Cc1c(O)c2ccccc2oc1=O [Dicumarol]							Ranking score (human NTCP [1]; [6]): 403.485; B-score functional assay (human NTCP [1]; [7]): -1.792; B-score binding assay (human NTCP [2]; [8]): 1.31
CNC(C)CCC=C(C)C.CNC(C)CCC=C(C)C.O=C(O)[C@@H](O)[C@H](O)[C@H](O)[C@@H](O)C(=O)O [Isometheptene mucate]							Ranking score (human NTCP [1]; [6]): 319.923; B-score functional assay (human NTCP [1]; [7]): -0.726; B-score binding assay (human NTCP [2]; [8]): -0.672
NC(=O)c1cccnc1 [Nicotinamide]				1.452	911.172	0.079	
CC(C)Cn1cnc2c(N)nc3ccccc3c21 [Imiquimod]							B-score functional assay (human NTCP [1]): -0.019; Ranking score (human NTCP [1]): 554.076; B-score binding assay (human NTCP [2]): -0.174
CCCNC(C)(C)COC(=O)c1ccccc1 [Meprylcaine hydrochloride]							Ranking score (human NTCP [1]; [6]): 382.481; B-score functional assay (human NTCP [1]; [7]): 0.763; B-score binding assay (human NTCP [2]; [8]): -1.608
CCOC(=O)[C@H](CCc1ccccc1)N[C@@H](C)C(=O)N1Cc2ccccc2C[C@H]1C(=O)O [Quinapril HCl]				2.971	1103.9	0.741	
Cc1ncc(C[n+]2csc(CCO)c2C)c(N)n1 [Thiamine hydrochloride]	1.872	830.8	-0.051				
O=c1[nH]cnc2c1ncn2[C@H]1CC[C@@H](CO)O1 [Didanosine]				0.086	927.069	1.663	
Cc1c(Cl)cccc1Nc1ncccc1C(=O)O.NCCCC[C@H](N)C(=O)O [Clonixin Lysinate]							B-score functional assay (human NTCP [1]): -1.707; Ranking score (human NTCP [1]): 317.248; B-score binding assay (human NTCP [2]): 0
Nc1ccn([C@@H]2O[C@H](CO)[C@@H](O)C2(F)F)c(=O)n1 [Gemcitabine]	0.015	717.496	0.165				

SMILES	B-score functional assay (human NTCP [1]; [3])	Ranking score (human NTCP [1]; [4])	B-score binding assay (human NTCP [2]; [5])	B-score functional assay (human NTCP [1]; [9])	Ranking score (human NTCP [1]; [10])	B-score binding assay (human NTCP [2]; [11])	other results
CC[C@]12CCCN3CCc4c(n(c5ccccc45)[C@@](O)(C(=O)OC)C1)[C@@H]32 [Vincamine]	-0.257	659.7	0.616				
CCN(CC)C(=O)Nc1ccc(OCC(O)CNC(C)(C)C)c(C(C)=O)c1 (stereo not drawn) [Celiprolol HCl]				0.793	1068.26	1.474	
Nc1ccc(O)c(C(=O)O)c1 [Mesalamine]	-0.331	739.887	2.828				
O=C1c2cccc3c2[C@H](CCC3)CN1[C@@H]1CN2CCC1CC2 [Palonosetron hydrochloride]	1.95	833.96	-0.051				
CCCN(CCC)CCc1cccc2c1CC(=O)N2 [Ropinirole HCl]	-0.072	825.121	2.082				
CN1C2CCCC1CC(NC(=O)c1nn(C)c3ccccc13)C2 (stereo not drawn) [Granisetron]	0.526	726.756	-0.067				
CN[C@@H]1[C@@H](O)[C@@H](O[C@@H]2[C@@H](O)[C@H](O[C@H]3OC(CN)=CC[C@H]3N)[C@@H](N)C[C@H]2N)OC[C@]1(C)O [Sisomicin sulfate]				1.589	1018.48	0.455	
C=C(CC)C(=O)c1ccc(OCC(=O)O)c(Cl)c1Cl [Ethacrynic acid]				0.935	1005.99	0.672	
CC(=O)OC[C@H]1O[C@@H]([S-])[C@H](OC(C)=O)[C@@H](OC(C)=O)[C@@H]1OC(C)=O.CCP(CC)CC.[Au+] [Auranofin]	0.729	748.559	-0.068				
CO[C@H]1C[C@H](O[C@H]2[C@H](C)[C@@H](O[C@@H]3O[C@H](C)C[C@H](N(C)C)[C@H]3OC(C)=O)[C@@H](C)C[C@@]3(CO3)C(=O)[C@H](C)[C@@H](OC(C)=O)[C@@H](C)[C@@H](C)OC(=O)[C@@H]2C)O[C@@H](C)[C@@H]1OC(C)=O [Troleandomycin]	-0.071	732.508	0.633				
S=C(NC1CCCCC1)N1CCC(c2cnc[nH]2)CC1 [Thioperamide maleate]							Ranking score (human NTCP [1]; [6]): 451.504; B-score functional assay (human NTCP [1]; [7]): -0.893; B-score binding assay (human NTCP [2]; [8]): 0.108
CCOC(=O)C(C)(C)Oc1ccc(Cl)cc1 [Clofibrate]				1.746	1068.42	0.712	
COc1ccnc(C[S+]([O-])c2nc3ccc(OC(F)F)cc3[nH]2)c1OC (stereo not drawn) [Pantoprazole sodium]							B-score functional assay (human NTCP [1]): 0.443; Ranking score (human NTCP [1]): 878.449; B-score binding assay (human NTCP [2]): 0.377
O=c1[nH]c(=O)n([C@H]2C[C@H](O)[C@@H](CO)O2)cc1F [Floxuridine]	0.659	772.114	-0.009				
O=C1CCC(N2C(=O)c3ccccc3C2=O)C(=O)N1 (stereo not drawn) [Thalidomide]				0.111	964.883	2.398	
NS(=O)(=O)c1cc2c(cc1Cl)NC(CC1CCCC1)NS2(=O)=O (stereo not drawn) [Cyclopenthiazide]	-0.118	797.145	2.395				
N=C(N)N1CCc2ccccc2C1 [Debrisoquin sulfate]				2.382	932.772	0.059	
CCCC(=O)Nc1ccc(OCC(O)CNC(C)C)c(C(C)=O)c1 (stereo not drawn) [Acebutolol hydrochloride]				1.681	904.34	0.049	
N=C(N)NCC1COC2(CCCCC2)O1.N=C(N)NCC1COC2(CCCCC2)O1.O=S(=O)(O)O (stereo not drawn) [Guanadrel sulfate]							Ranking score (human NTCP [1]; [6]): 326.821; B-score functional assay (human NTCP [1]; [7]): -2.033; B-score binding assay (human NTCP [2]; [8]): 0.27
Cc1ccc(Cl)c(Nc2ccccc2C(=O)[O-])c1Cl.O.[Na+]							Ranking score (human NTCP [1]; [6]): 386.518; B-score functional assay (human NTCP [1]; [7]): -1.621; B-score binding assay (human NTCP [2]; [8]): 0.415
CC(C)N(CCC(C(N)=O)(c1ccccc1)c1ccccn1)C(C)C (stereo not drawn) [Disopyramide]				0.051	925.407	2.245	
CC[C@H]1OC(=O)C[C@@H](O)[C@H](C)[C@@H](O[C@@H]2O[C@H](C)[C@@H](O[C@H]3C[C@@](C)(O)[C@@H](O)[C@H](C)O3)[C@H](N(C)C)[C@H]2O)[C@@H](CC=O)C[C@@H](C)C(=O)/C=C/C(C)=C/[C@@H]1CO[C@@H]1O[C@H](C)[C@@H](O)[C@@H](OC)[C@H]1OC [Tylosin]				0.165	978.04	2.256	
